Values quoted from earlier work, collected in patent US20230131493A1, “METHODS OF TREATING AGITATION ASSOCIATED WITH ALZHEIMER'S DISEASE” (Avanir Phrmaceuticals Inc., priority 2021, published 2023).
Counter-ions that a name gives are not always drawn.

Key:
[1] = a P-glycoprotein substrate
[2] = target: sigma-1 receptor (Homo sapiens, UniProt Q99720)
sigma-1 receptor, sequence (Q99720 whole entry, species assumed): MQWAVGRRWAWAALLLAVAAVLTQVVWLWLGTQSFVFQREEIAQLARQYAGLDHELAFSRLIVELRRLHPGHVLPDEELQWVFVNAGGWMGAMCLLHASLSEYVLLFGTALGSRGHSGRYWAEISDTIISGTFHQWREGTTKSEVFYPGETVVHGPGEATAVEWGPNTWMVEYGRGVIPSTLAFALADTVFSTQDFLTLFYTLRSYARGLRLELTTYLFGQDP

SMILES	serum digoxin levels on concomitant administration with digoxin [1]	receptor binding [2]
C=C[C@H]1CN2CC[C@H]1C[C@@H]2[C@@H](O)c1ccnc2ccc(OC)cc12.C=C[C@H]1CN2CC[C@H]1C[C@@H]2[C@@H](O)c1ccnc2ccc(OC)cc12.O=S(=O)(O)O [Quinidine, quinidine sulfate]	may be as much as doubled	–
[2H]C([2H])([2H])Oc1ccc2c(c1)[C@]13CCCC[C@@H]1[C@H](C2)N(C([2H])([2H])[2H])CC3 [d6-DM, deuterated [d6]-dextromethorphan hydrobromide]	–	binds to the sigma-1 receptor
